Results from patent EP4644375A1, “SUBSTITUTED HYDROQUINOLINES FOR THE TREATMENT OF GLIOBLASTOMA MULTIFORME” (Molius Saglik Teknolojileri Anonim Sirketi, priority 2024, dated 2025).
Blank lines part the entries; values can stand above or below the molecule they belong to.

Key:
[1] = system: U138-MG human glioma cell; assay: Cell proliferation analysis (MTT); type: cell-based; conditions: MTT; for activity at 10 µM / inhibition at 10 µM: Homo sapiens, 48 h, two days
U87-MG human glioma cell = assay: Cell proliferation analysis (MTT); type: cell-based; conditions: MTT; for activity at 10 µM / inhibition at 10 µM: Homo sapiens, U-87 MG, 48 h, two days
[2] = In vivo GBM rat model: plasma chemistry; conditions: GBM rats, 30 mg/kg oral, 5 days, plasma at necropsy
Experimental: (§1) The parameters that were analysed can be seen in Table 11.

[3] = In vivo GBM rat model: haematology
Experimental: as §1

[4] = In vivo GBM rat model: body weight; conditions: treated GBM rats compared to the GBM rats, 30 mg/kg oral, 5 days
Experimental: An in Vivo study was performed to assess the therapeutic potential of TR-G002, TR-G045, TR-G053, TR-G066, TR-G071 and TR-G091 in the GBM xenograft rat model when administered orally by gavage for five consecutive days. 152 female rats of the Sprague Dawley strain were allocated to the study. Six groups of sixteen females were given dose of 30 mg/kg of the respective target compounds. […] The study design can be seen in Fig. 11 and Table 10.
Individual body weights were manually calculated. Group mean body weights; group mean body weight changes and organ weights were also manually calculated without statistical analysis. To determine the density of positive staining from immunohistochemical and immunofluorescence staining images, five randomly selected areas were evaluated using ZEISS Zen Imaging Software. Data were statistically defined as mean and standard deviation (mean ± SD) for the percentage of the area. One-way ANOVA followed by the Tukey test was performed to compare immunoreactive cells and immune-positive stained areas with healthy controls. GraphPad Prism software was used for analysis.

[5] = Peripheral blood micronucleus assay; type: in vivo, Rat
Experimental: Blood smears were made on clean microscope slides, allowed to air-dry, treated with methanol for fixation, and then stained with Giemsa (10% in 0.1 mM of sodium phosphate buffer, pH 6.8) for 10 min. After washing with PBS, the slides were examined under a light microscope. The frequencies of micronuclei (MN) were calculated by evaluating 1000 cells per animal.

[6] = PAMPA permeability assay, gastrointestinal mimicking membrane; conditions: 500 µM, 18 hours, 37 °C
Experimental: Permeability assay and analyses were performed according to the manufacturer's instructions. […] After the loading of lipid solutions into the pores, all drug solutions and the permeability controls were put onto the lipid membrane in donor wells. The permeability assay was performed for 18 hours at 37 °C incubator. All samples were collected from acceptor wells after the incubation period was finished and the absorbance values were measured with equilibrium standards for normalization.

[7] = GBM rats, 30 mg/kg oral, 5 days, blood at necropsy

PLT levels ([3]; compared to GBM rats): no significant changes
WBC level ([3]; compared to the GBM rats): did not cause any significant changes
SMILES: Cn1nnc2c(C(N)=O)ncn2c1=O [TMZ, Temozolomide, reference compound]
Inhibition (%) ([1]; reference drugs): 22%
Proliferation (%) ([1]; reference drugs): 78%
Inhibition (%) (U87-MG human glioma cell; reference drugs): 20%
Proliferation (%) (U87-MG human glioma cell; reference drugs): 80%
ALP [2]: 128.7 IU/L
ALT [2]: 42.4 IU/L
AST [2]: 114.63 IU/L
GLU [2]: 311 mg/dL
LDH [2]: 499.85 IU/L
LDL C [2]: 5.12 mmol/L
TG [2]: 111 mg/dL
HCT [3, 7]: 48.13%
HGB [3, 7]: 15.13 g/dL
MCH [3, 7]: 18.10 pg
MCHC [3, 7]: 31.47 g/dL
MCV [3, 7]: 57.55 fL
PLT [3, 7]: 829.67 10^9 /L
RBC [3, 7]: 8.36 10^12/L
WBC [3, 7]: 4.92 10^9/L
body weight [4]: No significant change in body weight
MN frequency ([5]; GBM rats, 30 mg/kg oral, 5 days, 1000 cells per animal evaluated): 14.32 ± 3.10
MN frequency (comparison) ([5]; treated GBM rats): highest observed MN frequency

permeability through the gastrointestinal mimicking membrane [6]: highly permeable
SMILES: O=C(COc1ccc2c(c1)CCC(=O)N2)N/N=C/c1ccc(F)cc1 [TR-G128, (E)-N'-(4-fluorobenzylidene)-2-((2-oxo-1,2,3,4-tetrahydroquinolin-6-yl)oxy)acetohydrazide]
activity at 10 µM [1]: 68%
inhibition at 10 µM [1]: 32%
activity at 10 µM (U87-MG human glioma cell): 68%
inhibition at 10 µM (U87-MG human glioma cell): 32%

permeability through the gastrointestinal mimicking membrane [6]: highly permeable
SMILES: C=CCOc1ccc2c(c1)CCC(=O)N2 [TR-G014, 6-(allyloxy)-3,4-dihydroquinolin-2(1H)-one]
activity at 10 µM [1]: 51%
inhibition at 10 µM [1]: 49%
activity at 10 µM (U87-MG human glioma cell): 82%
inhibition at 10 µM (U87-MG human glioma cell): 18%

SMILES: Cc1ccc(F)cc1NC(=O)Oc1ccc2c(c1)CCC(=O)N2 [TR-G097, 2-oxo-1,2,3,4-tetrahydroquinolin-6-yl (5-fluoro-2-methylphenyl)carbamate]
activity at 10 µM [1]: 73%
inhibition at 10 µM [1]: 27%
activity at 10 µM (U87-MG human glioma cell): 79%
inhibition at 10 µM (U87-MG human glioma cell): 21%
permeability through the gastrointestinal mimicking membrane [6]: highly permeable

SMILES: CN(C(=O)Oc1ccc2c(c1)CCC(=O)N2)c1ccccc1 [TR-G072, 2-oxo-1,2,3,4-tetrahydroquinolin-6-yl methyl(phenyl)carbamate]
activity at 10 µM [1]: 85%
inhibition at 10 µM [1]: 15%
activity at 10 µM (U87-MG human glioma cell): 85%
inhibition at 10 µM (U87-MG human glioma cell): 15%
permeability through the gastrointestinal mimicking membrane [6]: highly permeable

permeability through the gastrointestinal mimicking membrane [6]: highly permeable
SMILES: C#CCOc1ccc2c(c1)CCC(=O)N2 [TR-G006, 6-(prop-2-yn-1-yloxy)-3,4-dihydroquinolin-2(1H)-one]
activity at 10 µM [1]: 86%
inhibition at 10 µM [1]: 14%
activity at 10 µM (U87-MG human glioma cell): 86%
inhibition at 10 µM (U87-MG human glioma cell): 14%
